# According to publication PMC9022229, “Induction of Paraptosis by Cyclometalated Iridium Complex-Peptide Hybrids and CGP37157 via a Mitochondrial Ca^2+ Overload Triggered by Membrane Fusion between Mitochondria and the Endoplasmic Reticulum” (Biochemistry, 2022):
# pEC50: −log10 of the molar value. Like-named read-outs stand apart in the source and are kept apart here. Residues, ends and D or L forms follow the SMILES beside them. *: point of attachment. X1 = O=C(COc1ccc(-c2ccccn2)cc1)NCCCCCCCCN*
# How the values were obtained:
# Format in all cases: cell-based
# [1] = test system: MFN1- and/or MFN2-KD Jurkat cells; test: MTT assay of MFN1- and/or MFN2-KD Jurkat cells; details: siRNA 10 nM, three independent experiments
# Experimental: The roles of MFNs in the cell death induced by 4 and CGP37157 were examined by using small interfering RNA (siRNA) for MFN1 and MFN2 to knock down (KD) these proteins. […] The cytotoxicity of 4 and CGP37157 against MFN1- and/or MFN2-KD Jurkat cells was evaluated by MTT assays. […] The effect of a negative control siRNA (NCsiRNA) on the expression levels of MFNs and the cell viability of Jurkat cells was negligible, implying that MFNs are […] to the paraptosis induced by 4 and CGP37157. It should be noted that the treatment with siRNA at 5 nM for 72 h was toxic against Jurkat cells in the presence of 4 and CGP37157, although the efficiency of knockdown of these proteins by siRNA could be improved by increasing the incubation time, as shown in Figure S11.
# To a solution of transfection reagent (INTERFERin, 5 μL) in OPTI-MEM (0.3 mL) in a 1.5 mL Eppendorf tube was added siRNA (10 μM, 1 or 2 μL) in H2O, and the resulting solution was allowed to stand for 15 min at room temperature. The resulting solution was then added to Jurkat cells (2.0 × 10^5 cells/mL, 1.5 mL) in 10% FBS/RPMI 1640 medium that had been seeded on a 12-well plate and incubated overnight at 37 °C under 5% CO2 (the final concentration of siRNA was 5 or 10 nM), and the resulting solution was incubated for 48 or 72 h at 37 °C under 5% CO2. The cells were collected by centrifugation (2000 rpm, 3 min, 4 °C), and the expression levels of MFNs were evaluated by Western blot analysis as described above. The cytotoxicity of 4 (3 or 5 μM), CGP37157 (50 or 100 μM), and celastrol (1 μM) against MFNs-KD Jurkat cells was evaluated by MTT assays as described above.
# Jurkat cells [2] = test: Cytosolic Ca2+ by flow cytometry with Rhod-4
# Experimental: Other characteristic phenomena of paraptosis such as a mitochondrial Ca^2+ overload and loss of mitochondrial membrane potential (ΔΨm) induced by CGP37157 were also examined. Intracellular Ca^2+ concentrations were measured by flow cytometry using red-emitting Ca^2+ probes, Rhod-2 (a mitochondrial Ca^2+ probe) and Rhod-4 (a cytosolic Ca^2+ probe). Jurkat cells were stained with Rhod-2/AM or Rhod-4/AM (at 5 μM) and then treated with CGP37157 (100 μM) or 4 (5 μM) for a given period of incubation, immediately after which the emission intensity of Rhod-2 and Rhod-4 was measured by flow cytometry. […]
# In a 1.5 mL Eppendorf tube, Jurkat cells (2.0 × 10^5 cells) were incubated in the presence of Rhod-2/AM (5 μM, 100 μL) or Rhod-4/AM (5 μM, 100 μL) in 10% FBS/RPMI 1640 medium for 30 min at 37 °C under 5% CO2 and then treated with 4 (5 μM, 0–30 min) or CGP37157 (100 μM, 0–6 h) in 10% FBS/RPMI 1640 medium (100 μL) for 30 min at 37 °C under 5% CO2. Immediately after the treatment, 10% FBS/RPMI 1640 medium (300 μL) was added to the cells and the samples were analyzed on a flow cytometer (FACSCalibur cytometer, Becton). The data were analyzed on FlowJo software (FlowJo, LCC).
# Jurkat cells [3] = test system: Jurkat cells
# Experimental: The cytotoxicity of 4 against Jurkat cells was evaluated by conducting MTT assays [MTT = 3-(4,5-dimethyl-2-thiazolyl)-2,5-diphenyl-2H-tetrazolium bromide] as a function of time and by microscopic observations to determine the appropriate conditions for mechanistic studies of paraptosis (Figure 1).
# It was reported that an inhibitor of a mitochondrial Na^+/Ca^2+ exchanger (mNCX), which functions to export Ca^2+ from the mitochondrial matrix to the cytosol in exchange with cytosolic Na^+, affects the mitochondrial Ca^2+ concentration.[60]−[63],[88]−[90] We therefore examined the cytotoxicity of CGP37157 (Chart 2), a typical inhibitor of mNCX,[60],[61],[88]−[90] against Jurkat cells by means of an MTT assay. […] For microscopic observations, Jurkat cells were treated with CGP37157 (100 μM) for 0–24 h, and cell death was observed after treatment with CGP37157 for 12–24 h, by staining with propidium iodide (PI) (Figure 3B).
# HeLa S3 and A549 cells (2.0 × 10^4 cells/well) were seeded on a 96-well plate (BD Falcon) in cell culture medium and incubated overnight at 37 °C under 5% CO2. Jurkat (2.0 × 10^4 cells/well), HeLa S3, and A549 cells were treated with 4 (0–25 μM) and CGP37157 (0–100 μM) for 1, 3, 6, 12, and 24 h at 37 °C under 5% CO2, after which a MTT solution in PBS (0.5%, 10 μL) was added to each well.
# Statistical analyses of MTT assays were performed by using Graphpad Prism 9 software with the Student’s t test. Data are presented as means ± the standard deviation of three independent experiments, and a P of <0.05 was considered to indicate a statistically significant difference.
Structure (SMILES),"Effect of knockdown of MFNs on cell death induced by the compound ([1]; CGP37157 50 or 100 µM, 12 h)","Emission of Rhod-4 (cytosolic Ca2+) (Jurkat cells [2]; CGP37157 100 μM, 1–6 h)","pEC50 (Jurkat cells [3]; 12 h incubation, 10% FBS/RPMI 1640, 37 °C, 5% CO2, read-out: EC50 (MTT, Jurkat cells))","pEC50 (Jurkat cells [3]; 24 h incubation, 10% FBS/RPMI 1640, 37 °C, 5% CO2, read-out: EC50 (MTT, Jurkat cells))","Effect of knockdown of MFNs on cell death induced by the compound ([1]; 4 at 3 or 5 µM, 1 h)","Emission of Rhod-4 (cytosolic Ca2+) (Jurkat cells [2]; 4 at 5 μM, 10–30 min)",pEC50 (Jurkat cells [3]; 1 h),pEC50 (Jurkat cells [3]; 3 h),pEC50 (Jurkat cells [3]; 6 h),pEC50 (Jurkat cells [3]; 12 h),pEC50 (Jurkat cells [3]; 24 h)
O=C1CSC(c2ccccc2Cl)c2cc(Cl)ccc2N1 (centres unmarked) [CGP37157],weakly inhibited,small emission enhancement,4.13,4.26,,,,,,,
NCCCC[C@H](NC(=O)[C@H](CCCCN)NC(=O)[C@@H](N)CCCCN)C(=O)NCC(=O)NCC(=O)NCCCCCCCCNC(=O)COc1ccc(-c2ccccn2)cc1 [compound 4] (H-KKKGG-X1),,,,,weakly inhibited,small emission enhancement,5.49,5.70,5.82,5.92,5.77
